Experimental data as given in publication PMC11181328 (Journal of Medicinal Chemistry, 2024).

Experiments:
[1] = system: male Swiss Webster mice; test: Locomotor activity assay; assay type: in vivo, mouse; conditions: s.c., 30 min session; for average speed by time versus vehicle: Figure 6F–H
Description: This hypolocomotion could result in false positives in assays of evoked antinociception such as WWTI.[115] Thus, a locomotor activity assay was utilized to assess this end point in accordance with previous studies.[28] In brief, the day prior to testing, mice were placed in the open field chamber for acclimation. On the test day, they were injected with compounds 21, 23, NLF, or vehicle and immediately placed back into the open field chamber. Photo beam breaks then recorded the mouse’s locomotion over a 30 min test period.
Six open field activity chambers (Med Associates, St. Albans, VT) were used in the locomotor activity study. Each chamber is located inside a sound-attenuating cubicle (Med Associates) and is equipped with a ventilation system. The interior of the chamber consists of a 27 × 27 cm plexiglass enclosure wired with photobeam cells and connected to a computer console that monitors the activity of the animal.
The day before the experiment, mice were acclimated to the activity chambers for a period of 30 min. On the day of the experiment, mice were administered vehicle or test compound s.c., placed into the activity chambers immediately and activity was monitored and recorded for a period of 30 min.
The primary dependent measures are total (1) distance traveled (cm), (2) ambulatory counts, (3) vertical counts, and (4) average speed (cm/s) within the 30 min session. Data are shown as mean ± SEM. Data were compared using one-way or two-way ANOVA as appropriate and a significant ANOVA was followed by a Dunnet’s post hoc test as appropriate. Statistical significance was defined as p < 0.05.

[2] = molecular target: MOR (Mus musculus, UniProt P42866); test: [35S]-GTPγS functional assay, MOR; assay type: biochemical; design: expressed in transfected cells; membrane homogenate; conditions: for EC50: mMOR-CHO membranes; for [35S]-GTPγS functional activity MOR Emax (%): percent of DAMGO full agonist control; for Emax: read-out: [35S]-GTPγS functional activity MOR Emax (%)
[3] = molecular target: hERG (Kv11.1) (Homo sapiens, UniProt Q12809); test: Automated patch-clamp hERG inhibition assay in CHO-hERG cells
[4] = molecular target: hERG (Homo sapiens, UniProt Q12809); test: as above
Chain of hERG (Q12809 whole entry): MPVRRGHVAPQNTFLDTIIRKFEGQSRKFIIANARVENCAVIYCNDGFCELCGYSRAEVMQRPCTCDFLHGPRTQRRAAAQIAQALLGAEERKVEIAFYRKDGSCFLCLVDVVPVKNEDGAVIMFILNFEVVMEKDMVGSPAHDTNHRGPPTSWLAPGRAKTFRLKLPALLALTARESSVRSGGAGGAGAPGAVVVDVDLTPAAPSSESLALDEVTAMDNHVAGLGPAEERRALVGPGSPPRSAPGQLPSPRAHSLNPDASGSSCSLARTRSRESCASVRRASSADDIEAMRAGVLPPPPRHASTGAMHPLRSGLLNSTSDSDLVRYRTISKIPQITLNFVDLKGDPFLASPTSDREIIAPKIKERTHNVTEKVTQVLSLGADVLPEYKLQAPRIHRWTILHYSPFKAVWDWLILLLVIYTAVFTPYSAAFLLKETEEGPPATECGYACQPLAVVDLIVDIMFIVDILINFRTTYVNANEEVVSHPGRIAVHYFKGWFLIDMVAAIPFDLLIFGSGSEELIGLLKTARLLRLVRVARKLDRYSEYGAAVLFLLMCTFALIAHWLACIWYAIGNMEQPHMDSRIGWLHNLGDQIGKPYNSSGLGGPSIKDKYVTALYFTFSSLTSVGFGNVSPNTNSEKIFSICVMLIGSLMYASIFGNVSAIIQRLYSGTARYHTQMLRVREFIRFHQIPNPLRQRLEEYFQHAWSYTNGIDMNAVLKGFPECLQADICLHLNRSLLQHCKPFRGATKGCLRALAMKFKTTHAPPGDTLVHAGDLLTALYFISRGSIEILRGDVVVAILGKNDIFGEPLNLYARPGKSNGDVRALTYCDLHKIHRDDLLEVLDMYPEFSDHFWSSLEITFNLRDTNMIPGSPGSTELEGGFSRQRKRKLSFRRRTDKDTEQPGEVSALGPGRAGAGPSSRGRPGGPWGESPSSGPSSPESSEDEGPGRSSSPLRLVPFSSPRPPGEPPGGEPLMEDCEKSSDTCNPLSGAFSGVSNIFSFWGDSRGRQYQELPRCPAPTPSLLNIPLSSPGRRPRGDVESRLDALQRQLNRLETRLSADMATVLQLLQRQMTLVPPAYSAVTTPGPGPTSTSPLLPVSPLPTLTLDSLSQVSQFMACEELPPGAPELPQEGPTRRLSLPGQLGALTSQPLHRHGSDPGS

Chain of MOR (P42866 whole entry, looked up): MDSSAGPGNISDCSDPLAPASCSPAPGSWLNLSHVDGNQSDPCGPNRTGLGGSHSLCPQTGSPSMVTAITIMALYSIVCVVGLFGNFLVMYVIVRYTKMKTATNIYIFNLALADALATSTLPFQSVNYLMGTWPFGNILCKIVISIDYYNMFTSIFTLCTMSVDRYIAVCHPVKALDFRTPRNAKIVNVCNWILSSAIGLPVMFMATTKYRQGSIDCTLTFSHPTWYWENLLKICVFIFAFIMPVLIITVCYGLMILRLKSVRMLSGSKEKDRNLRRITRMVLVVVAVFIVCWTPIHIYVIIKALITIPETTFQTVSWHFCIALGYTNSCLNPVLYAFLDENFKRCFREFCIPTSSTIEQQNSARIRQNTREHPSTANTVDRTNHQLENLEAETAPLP
Chain of hERG (Kv11.1) (Q12809 whole entry): as the sequence (Q12809 whole entry) above

| SMILES | locomotor activity [1] | average speed by time versus vehicle [1] | EC50 [2] | [35S]-GTPγS functional activity MOR Emax (%) [2] | Emax [2] | IC50 [3] | IC50 [4] |
| --- | --- | --- | --- | --- | --- | --- | --- |
| CN(C(=O)/C=C/c1ccco1)[C@H]1CC[C@@]2(O)[C@H]3Cc4ccc(O)c5c4[C@@]2(CCN3CC2CC2)[C@H]1O5.Cl [Compound 21, 17-Cyclopropylmethyl-3,14β-dihydroxy-4,5α-epoxy-6α-[(2E)-3′-(furan-2″-yl)-N-methylprop-2-enamido]morphinan Hydrochloride] | significant decrease in vertical counts at the largest dose tested | did not result in average speeds significantly different from vehicle at any time point | 0.58 ± 0.17 nM | low efficacy MOR partial agonism | 19.7 ± 0.7% | 2510 nM | – |
| CN(C(=O)/C=C/c1ccco1)[C@@H]1CC[C@@]2(O)[C@H]3Cc4ccc(O)c5c4[C@@]2(CCN3CC2CC2)[C@H]1O5.Cl [Compound 23, 17-Cyclopropylmethyl-3,14β-dihydroxy-4,5α-epoxy-6β-[(2E)-3′-(furan-2″-yl)-N-methylprop-2-enamido]morphinan Hydrochloride] | dose-dependent decrease in locomotor activity across all end points | significantly different from vehicle | 5.31 ± 0.53 nM | low efficacy MOR partial agonism | 14.2 ± 1.77% | – | 1090 nM |
